Earlier results as cited in patent US20100215725A1, “PHARMACEUTICAL COMPOSITION CONTAINING IDEBENONE FOR THE TREATMENT OF LIVER DISORDERS” (priority 2009, published 2010).

Test system: rat liver microsomes
Settings: pro-oxidative system NADPH/ADP/Fe3+

| Compound | concentration offering complete protection against lipid peroxidation in microsomes |
| --- | --- |
| COC1=C(OC)C(=O)C(C/C=C(\C)CC/C=C(\C)CC/C=C(\C)CC/C=C(\C)CC/C=C(\C)CC/C=C(\C)CC/C=C(\C)CC/C=C(\C)CC/C=C(\C)CCC=C(C)C)=C(C)C1=O [coenzyme Q-10] | 100 µM |
| COC1=C(OC)C(=O)C(CCCCCCCCCCO)=C(C)C1=O [Idebenone, 2,3-dimethoxy-5-methyl-6-(10-hydroxydecyl)-1,4-benzoquinone] | 20 µM |
